ChEMBL document CHEMBL3813616, “Discovery of novel 7-azaindoles as PDK1 inhibitors” (Bioorg Med Chem Lett, 2016)

Experiments:
[1] = target: Mitogen-activated protein kinase 1 (Homo sapiens) (UniProt P28482); test: Inhibition of human MAPK2 (2 to 360 residues) assessed as enzyme activity at 1 uM using 33P ATP by radioactive filter binding assay; set-up: scale not given: the % may be the effect or the level left
[2] = target: Rho-associated protein kinase 2 (Rattus norvegicus) (UniProt Q62868); test: Inhibition of rat ROCK2 (2 to 543 residues) assessed as enzyme activity at 1 uM using 33P ATP by radioactive filter binding assay; set-up: scale not given: the % may be the effect or the level left
[3] = target: Mitogen-activated protein kinase 8 (Homo sapiens) (UniProt P45983); test: Inhibition of human JNK1alpha1 assessed as enzyme activity at 1 uM using 33P ATP by radioactive filter binding assay; set-up: scale not given: the % may be the effect or the level left
[4] = target: Insulin receptor-related protein (Homo sapiens) (UniProt P14616); test: Inhibition of human IRR (944 to 1236 residues) assessed as enzyme activity at 1 uM using 33P ATP by radioactive filter binding assay; set-up: scale not given: the % may be the effect or the level left
[5] = target: Serine/threonine-protein kinase pim-1 (Homo sapiens) (UniProt P11309); test: Inhibition of human PIM1 (2 to 313 residues) assessed as enzyme activity at 1 uM using 33P ATP by radioactive filter binding assay; set-up: scale not given: the % may be the effect or the level left
[6] = target: SRSF protein kinase 1 (Homo sapiens) (UniProt Q96SB4); test: Inhibition of human SRPK1 (2 to 654 residues) assessed as enzyme activity at 1 uM using 33P ATP by radioactive filter binding assay; set-up: scale not given: the % may be the effect or the level left
[7] = target: T1, Serine/threonine-protein kinase BRSK2 (Homo sapiens) (UniProt Q8IWQ3); test: Inhibition of human BRSK2 (2 to 674 residues) assessed as enzyme activity at 1 uM using 33P ATP by radioactive filter binding assay; set-up: scale not given: the % may be the effect or the level left
T1 sequence (whole entry): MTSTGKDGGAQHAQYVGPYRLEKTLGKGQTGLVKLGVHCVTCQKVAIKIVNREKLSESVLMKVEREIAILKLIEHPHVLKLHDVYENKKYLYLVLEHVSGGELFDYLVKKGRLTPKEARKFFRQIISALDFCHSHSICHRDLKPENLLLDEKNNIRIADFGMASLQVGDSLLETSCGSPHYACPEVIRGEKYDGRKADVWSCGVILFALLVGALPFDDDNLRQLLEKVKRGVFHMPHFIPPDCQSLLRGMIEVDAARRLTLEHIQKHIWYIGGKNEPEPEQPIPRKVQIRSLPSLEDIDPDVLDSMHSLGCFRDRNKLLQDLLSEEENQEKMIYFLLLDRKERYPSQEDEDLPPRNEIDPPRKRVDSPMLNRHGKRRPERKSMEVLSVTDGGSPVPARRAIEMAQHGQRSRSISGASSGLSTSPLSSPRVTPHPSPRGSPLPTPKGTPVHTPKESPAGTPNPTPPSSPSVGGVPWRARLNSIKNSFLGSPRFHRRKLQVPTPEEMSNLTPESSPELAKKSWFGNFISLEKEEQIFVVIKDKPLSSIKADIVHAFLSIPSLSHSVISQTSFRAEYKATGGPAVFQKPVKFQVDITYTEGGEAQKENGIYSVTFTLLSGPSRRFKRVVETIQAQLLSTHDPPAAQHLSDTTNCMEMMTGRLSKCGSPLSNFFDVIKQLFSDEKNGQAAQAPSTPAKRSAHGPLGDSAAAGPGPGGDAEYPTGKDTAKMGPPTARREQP

[8] = target: Serine/threonine-protein kinase pim-2 (Homo sapiens) (UniProt Q9P1W9); test: Inhibition of human PIM2 (2 to 334 residues) assessed as enzyme activity at 1 uM using 33P ATP by radioactive filter binding assay; set-up: scale not given: the % may be the effect or the level left
[9] = target: Calcium/calmodulin-dependent protein kinase type 1 (Homo sapiens) (UniProt Q14012); test: Inhibition of human CAMK1 (2 to 369 residues) assessed as enzyme activity at 1 uM using 33P ATP by radioactive filter binding assay; set-up: scale not given: the % may be the effect or the level left
[10] = target: Aurora kinase B (Homo sapiens) (UniProt Q96GD4); test: Inhibition of human Aurora B (1 to 344 residues) assessed as enzyme activity at 1 uM using 33P ATP by radioactive filter binding assay; set-up: scale not given: the % may be the effect or the level left
[11] = target: T2, Phosphatidylinositol 4,5-bisphosphate 3-kinase catalytic subunit delta isoform (Homo sapiens, UniProt O00329); test: Inhibition of PI3K delta (unknown origin)
T2 sequence (O00329 whole entry): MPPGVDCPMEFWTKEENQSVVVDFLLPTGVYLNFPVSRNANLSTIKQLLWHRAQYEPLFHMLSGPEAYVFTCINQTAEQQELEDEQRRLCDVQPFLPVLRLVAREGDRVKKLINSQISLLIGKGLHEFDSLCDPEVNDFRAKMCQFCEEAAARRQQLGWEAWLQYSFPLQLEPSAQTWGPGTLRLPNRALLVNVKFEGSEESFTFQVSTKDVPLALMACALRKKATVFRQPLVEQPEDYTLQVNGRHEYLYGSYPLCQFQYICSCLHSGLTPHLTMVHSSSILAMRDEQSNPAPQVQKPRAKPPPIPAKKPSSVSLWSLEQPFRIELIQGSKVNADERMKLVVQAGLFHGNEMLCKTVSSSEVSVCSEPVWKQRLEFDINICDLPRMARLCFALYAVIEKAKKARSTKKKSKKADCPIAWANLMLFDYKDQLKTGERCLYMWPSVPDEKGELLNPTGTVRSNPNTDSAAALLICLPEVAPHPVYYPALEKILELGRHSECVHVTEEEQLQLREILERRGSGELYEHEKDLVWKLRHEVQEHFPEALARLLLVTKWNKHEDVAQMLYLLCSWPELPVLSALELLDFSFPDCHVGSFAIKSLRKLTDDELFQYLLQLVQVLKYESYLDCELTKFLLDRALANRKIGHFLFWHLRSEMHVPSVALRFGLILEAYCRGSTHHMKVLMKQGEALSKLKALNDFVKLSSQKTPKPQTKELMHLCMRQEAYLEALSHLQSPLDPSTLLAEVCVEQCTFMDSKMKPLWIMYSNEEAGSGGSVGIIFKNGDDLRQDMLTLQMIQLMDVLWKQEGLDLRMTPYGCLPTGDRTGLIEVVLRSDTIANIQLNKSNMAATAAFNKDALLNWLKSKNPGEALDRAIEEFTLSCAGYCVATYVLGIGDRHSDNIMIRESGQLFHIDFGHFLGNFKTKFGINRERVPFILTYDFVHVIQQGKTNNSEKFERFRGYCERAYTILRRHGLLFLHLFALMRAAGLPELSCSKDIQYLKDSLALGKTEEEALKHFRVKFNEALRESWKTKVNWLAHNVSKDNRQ

CCc1cc(-c2c[nH]c3ncc(-c4cnn(C5CCNCC5)c4)cc23)nc(N)n1
Activity [1]: -32% | Activity [2]: -65% | Activity [3]: -31% | Activity [4]: -42% | Activity [5]: -85% | Activity [6]: 3% | Activity [7]: -65% | Activity [8]: -87% | Activity [9]: -49%

CCCCc1cc(-c2c[nH]c3ncc(-c4cnn(C5CCNCC5)c4)cc23)nc(N)n1
Activity [10]: -62% | Activity [1]: -30% | IC50 [11]: 4 µM | Activity [2]: -80% | Activity [3]: -41% | Activity [4]: -86% | Activity [5]: -98% | Activity [6]: -14% | Activity [7]: -65% | Activity [8]: -98% | Activity [9]: -60%

CCCCc1cc(-c2c[nH]c3ncccc23)nc(N)n1
Activity [10]: -16% | Activity [1]: -9% | IC50 [11]: > 10 µM | Activity [2]: -93% | Activity [3]: -6% | Activity [4]: -82% | Activity [5]: -61% | Activity [6]: -12% | Activity [7]: -12% | Activity [8]: -25% | Activity [9]: -3%

Nc1nccc(-c2c[nH]c3ncccc23)n1 [MERIOLIN 1]
Activity [10]: -31% | Activity [1]: -21% | IC50 [11]: > 10 µM | Activity [2]: -97% | Activity [3]: -5% | Activity [4]: -9% | Activity [5]: -62% | Activity [6]: -9% | Activity [7]: -16% | Activity [8]: -39% | Activity [9]: -6%
